Patent publication US10472356B2, “Bicyclic ketone sulfonamide compounds” (AMGEN INC., priority 2015, dated 2019)

The compounds below were run against T1, human Nav1.7 (Homo sapiens, UniProt Q15858) (assay: Nav 1.7 IWB In Vitro Assay (IonWorks Barracuda)). Conditions: HEK293 cells stably transfected with human Nav 1.7; IonWorks Barracuda population patch-clamp; cells clamped to −20 mV for 4 minutes with compound; 26th pulse; read-out: hNav1.7 IWB IC50.
T1 construct: expressed in transfected cells; host or cells: HEK293
T1 sequence (Q15858 whole entry): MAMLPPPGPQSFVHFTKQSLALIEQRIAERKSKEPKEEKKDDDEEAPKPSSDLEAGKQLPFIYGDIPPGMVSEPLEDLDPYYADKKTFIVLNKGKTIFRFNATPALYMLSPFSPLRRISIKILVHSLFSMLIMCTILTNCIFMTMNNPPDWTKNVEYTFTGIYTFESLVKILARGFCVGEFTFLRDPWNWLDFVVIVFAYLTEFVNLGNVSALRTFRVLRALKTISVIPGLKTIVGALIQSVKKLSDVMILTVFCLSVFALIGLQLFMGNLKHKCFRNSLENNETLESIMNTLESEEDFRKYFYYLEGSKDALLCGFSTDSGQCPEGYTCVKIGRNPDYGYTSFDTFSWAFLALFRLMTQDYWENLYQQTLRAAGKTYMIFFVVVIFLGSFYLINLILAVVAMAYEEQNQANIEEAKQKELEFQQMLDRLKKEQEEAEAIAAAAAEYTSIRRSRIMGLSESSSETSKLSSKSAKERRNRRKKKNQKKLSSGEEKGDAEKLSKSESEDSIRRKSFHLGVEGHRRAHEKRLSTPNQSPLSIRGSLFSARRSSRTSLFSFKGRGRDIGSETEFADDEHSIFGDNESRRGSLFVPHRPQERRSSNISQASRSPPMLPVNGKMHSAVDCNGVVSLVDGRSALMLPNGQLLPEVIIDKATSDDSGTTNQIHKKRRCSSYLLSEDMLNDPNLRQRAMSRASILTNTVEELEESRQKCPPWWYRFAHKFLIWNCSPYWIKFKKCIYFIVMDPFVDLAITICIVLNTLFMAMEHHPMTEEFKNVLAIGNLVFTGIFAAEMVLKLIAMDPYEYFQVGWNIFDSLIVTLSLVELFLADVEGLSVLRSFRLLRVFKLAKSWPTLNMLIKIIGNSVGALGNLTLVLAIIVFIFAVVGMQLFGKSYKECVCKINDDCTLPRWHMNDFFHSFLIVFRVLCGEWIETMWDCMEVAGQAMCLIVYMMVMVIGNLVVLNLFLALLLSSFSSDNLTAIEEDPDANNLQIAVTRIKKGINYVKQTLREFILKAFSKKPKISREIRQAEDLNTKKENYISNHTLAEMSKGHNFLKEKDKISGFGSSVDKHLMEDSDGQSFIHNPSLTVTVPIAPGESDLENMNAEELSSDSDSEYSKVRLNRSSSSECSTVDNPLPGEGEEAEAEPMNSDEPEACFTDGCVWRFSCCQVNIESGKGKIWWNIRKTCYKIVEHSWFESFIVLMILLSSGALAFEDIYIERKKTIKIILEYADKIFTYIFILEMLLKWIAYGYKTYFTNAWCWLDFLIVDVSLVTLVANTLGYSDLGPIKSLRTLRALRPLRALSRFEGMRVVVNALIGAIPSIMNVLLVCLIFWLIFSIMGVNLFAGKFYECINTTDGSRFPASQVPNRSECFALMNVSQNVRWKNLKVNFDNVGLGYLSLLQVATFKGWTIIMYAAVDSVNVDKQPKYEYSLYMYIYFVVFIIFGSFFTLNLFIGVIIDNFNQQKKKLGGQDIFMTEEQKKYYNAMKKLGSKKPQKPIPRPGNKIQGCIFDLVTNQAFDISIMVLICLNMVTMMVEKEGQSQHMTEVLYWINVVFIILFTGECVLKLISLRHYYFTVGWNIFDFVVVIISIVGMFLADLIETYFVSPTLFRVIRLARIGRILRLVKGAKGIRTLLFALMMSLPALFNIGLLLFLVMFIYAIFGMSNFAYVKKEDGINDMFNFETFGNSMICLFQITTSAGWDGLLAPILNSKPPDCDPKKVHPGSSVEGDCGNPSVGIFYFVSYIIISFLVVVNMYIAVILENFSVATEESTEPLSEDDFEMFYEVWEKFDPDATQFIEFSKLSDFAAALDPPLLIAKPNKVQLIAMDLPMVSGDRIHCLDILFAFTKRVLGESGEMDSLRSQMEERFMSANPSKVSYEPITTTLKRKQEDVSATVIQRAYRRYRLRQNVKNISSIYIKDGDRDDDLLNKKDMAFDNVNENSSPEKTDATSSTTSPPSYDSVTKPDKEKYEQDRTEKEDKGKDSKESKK
Assay type: cell-based
Procedure: Nav 1.7 IWB In Vitro Assay
HEK293 cells stably transfected with human Nav 1.7 were recorded in population patch-clamp mode with the IonWorks© Barracuda (IWB) automated electrophysiology system (Molecular Devices, LLC, Sunnyvale, Calif.). From a holding potential of −110 mV, sodium currents were elicited by a train of 26 depolarizations of 150 ms duration to −20 mV at a frequency of 5 Hz. Cells were then clamped to −20 mV for a period of 4 minutes in the presence of a single concentration of test compound. Following this compound incubation period, cells were clamped to −110 mV for three seconds to recover unbound channels and put through the same 26 pulse voltage protocol as above. Peak inward current during the 26th pulse to −20 mV in the presence of compound was divided by the peak inward current evoked by the 26th pulse to −20 mV in the absence of compound to determine percent inhibition. Concentration-response curves of percent inhibition as a function of concentration were generated to calculate IC50 values.

| IC50 [µM] | Structure (SMILES) |
| --- | --- |
| 4.24 | COc1cc(Br)c(F)cc1-n1c2c(ccc1=O)CN(S(=O)(=O)Nc1ncccn1)CC2 (racemic) [Preparation 8a, 1-(4-bromo-5-fluoro-2-methoxyphenyl)-2-oxo-N-2-pyrimidinyl-1,5,7,8-tetrahydro-1,6-naphthyridine-6(2H)-sulfonamide] |
| 1.12 | COc1cc(Br)c(F)cc1-n1c2c(ccc1=O)CN(S(=O)(=O)Nc1cccnn1)CC2 (racemic) [Preparation 8b, 1-(4-bromo-5-fluoro-2-methoxyphenyl)-2-oxo-N-3-pyridazinyl-1,5,7,8-tetrahydro-1,6-naphthyridine-6(2H)-sulfonamide] |
| 2.88 | COc1cc(Br)c(Cl)cc1-n1c2c(ccc1=O)CN(S(=O)(=O)Nc1ccon1)CC2 (racemic) [Preparation 8c, 1-(4-bromo-5-chloro-2-methoxyphenyl)-N-3-isoxazolyl-2-oxo-1,5,7,8-tetrahydro-1,6-naphthyridine-6(2H)-sulfonamide] |
| 8.3 | COc1cc(-c2cc(F)cc(Cl)c2)c(F)cc1-n1c2c(ccc1=O)CN(S(=O)(=O)Nc1cc(C)ncn1)CC2 (single isomer, unassigned) [Example 4-M, M-1-(3′-chloro-2,5′-difluoro-5-methoxy-4-biphenylyl)-N-(6-methyl-4-pyrimidinyl)-2-oxo-1,5,7,8-tetrahydro-1,6-naphthyridine-6(2H)-sulfonamide] |
| 0.726 | COc1cc(-c2cc(F)cc(Cl)c2)c(F)cc1-n1c2c(ccc1=O)CN(S(=O)(=O)Nc1ncns1)CC2 (single isomer, unassigned) [Example 5-M, M-1-(3′-chloro-2,5′-difluoro-5-methoxy-4-biphenylyl)-2-oxo-N-1,2,4-thiadiazol-5-yl-1,5,7,8-tetrahydro-1,6-naphthyridine-6(2H)-sulfonamide] |
| 8.82 | COc1cc(-c2cc(F)cc(Cl)c2)c(F)cc1-n1c2c(ccc1=O)CN(S(=O)(=O)Nc1ccnc(C)n1)CC2 (single isomer, unassigned) [Example 6-M, M-1-(3′-chloro-2,5′-difluoro-5-methoxy-4-biphenylyl)-N-(2-methyl-4-pyrimidinyl)-2-oxo-1,5,7,8-tetrahydro-1,6-naphthyridine-6(2H)-sulfonamide] |
| 1.21 | COc1cc(-c2cc(F)cc(Cl)c2)ccc1-n1c2c(ccc1=O)CN(S(=O)(=O)Nc1ccon1)CC2 (single isomer, unassigned) [Example 7-M, M-1-(3′-chloro-5′-fluoro-3-methoxy-4-biphenylyl)-N-3-isoxazolyl-2-oxo-1,5,7,8-tetrahydro-1,6-naphthyridine-6(2H)-sulfonamide] |
| 2.95 | COc1cc(-c2cc(F)cc(Cl)c2)ccc1-n1c2c(ccc1=O)CN(S(=O)(=O)Nc1cccnn1)CC2 (single isomer, unassigned) [Example 8-M, M-1-(3′-chloro-5′-fluoro-3-methoxy-4-biphenylyl)-2-oxo-N-3-pyridazinyl-1,5,7,8-tetrahydro-1,6-naphthyridine-6(2H)-sulfonamide] |
| 0.452 | COc1cc(-c2cc(F)cc(F)c2)c(F)cc1-n1c2c(ccc1=O)CN(S(=O)(=O)Nc1cccc(F)n1)CC2 (single isomer, unassigned) [Example 14-M, M-N-(6-fluoro-2-pyridinyl)-2-oxo-1-(2,3′,5′-trifluoro-5-methoxy-4-biphenylyl)-1,5,7,8-tetrahydro-1,6-naphthyridine-6(2H)-sulfonamide] |
| 0.72 | COc1cc(-c2cccc(C(F)(F)F)c2)c(F)cc1-n1c2c(ccc1=O)CN(S(=O)(=O)Nc1ccon1)CC2 (single isomer, unassigned) [Example 16-M, M-1-(2-fluoro-5-methoxy-3′-(trifluoromethyl)-4-biphenylyl)-N-3-isoxazolyl-2-oxo-1,5,7,8-tetrahydro-1,6-naphthyridine-6(2H)-sulfonamide] |
